In patent US10961276B2, “Universal antivenom” (CAMRIS International, Inc., priority 2017, dated 2021):
Entries after “also recorded” stand apart in the source; their conditions may differ.

Tested on: PLA2 of five major snake venoms in the U.S. (all major North American crotalid venoms)
Test: Cross-species anti-PLA2 activity of phage clone
Type: biochemical
Details: five major snake venoms in the U.S. (FIG. 4)
Protocol: Analysis of PLAz activity was conducted using the EnzChek® PLAz Assay Kit (Thermo Fisher Scientific, Waltham, Mass.). Individual phage clones were standardized to […] and diluted in log steps. Diluted phages were incubated with 4.88 μg/ml Western Cottonmouth venom for 30 minutes at RT. Fluorescence emission spectra (excitation at 485 nm, emission at 528 nm) was measured for 20 minutes at 1.0 minute intervals to monitor the reaction. PLA2 activity was determined by comparing the phage inhibited venom to uninhibited venom controls.
Originally consensus peptide for panning target was designed with ˜95% homology of all major North American crotalid PLA2. This cross-species reactivity of the selected phage clone is the best evidence for the potential development of a universal antivenom using phage display technique.

With KLIHGNGVMDEG [Ph.D.-12-7] the “cross-species anti-PLA2 activities” value was “cross-species anti-PLA2 activity; also recorded: showed anti-PLA2 activities across all major North American crotalid venoms”.
